From patent US7820692B2, “Tetrahydro isoquinoline derivatives, preparation methods and medicinal uses thereof” (China Pharmaceutical University, priority 2006, dated 2010)
“Also recorded” adds a separate entry of the source. Marks after values point to notes of the source that are not given here.

Assays:
κ-opioid receptor = κ-opioid receptor (Homo sapiens, UniProt P41145); assay: Radioligand receptor binding assay, competition with [3H]diprenorphine, κ-receptor; settings: for dpm: competition binding with κ-receptor, [3H]diprenorphine 0.5 nM; for dpm / inhibition rate % / inhibition at 10 µM: compound at 1 × 10^−5 M; for Ki: Ki=IC50/(1+[L]/Kd); for IC50: competition binding, κ-opioid receptor; for inhibition at 10 µM: read-out: inhibition rate %
Procedure: (§1) The experiment test tubes are divided into total binding tubes and non-specific binding tubes, and several groups of sample tubes added with competitive ligand in different concentrations are provided. The total binding tube is added with expressed membrane receptor protein equivalent to 20 μg and [^3H] diprenorphine (0.5 nM) (1.44 Pbq/mol broad spectrum opioid antagonist, Amersham), the corresponding non-specific binding tubes are further added with 1 μM Naloxone (broad spectrum opioid antagonist, Sigma), the sample tubes are added with different concentrations compounds which are to be screened, the final volume is regulated to 100 μl with 50 mM Tris(Amresco)-HCl (pH 7.4). Incubation is performed at 30° C. for 30 min, and the tubes are placed into ice water to stop reaction. Negative pressure filter is performed in Millipore sample collector via GF/(Whatman) glass fiber filter paper. Ice cold 50 mM Tris-HCl (pH 7.4) is used to wash the filter paper for three times, each for 4 ml; Dry the filter paper and place it in 0.5 ml Eppendorff tube, and add 0.5 ml of lipophilic scintillator liquid (Reagent No. 1 Factory Of Shanghai Chemical Reagent Co. Ltd). Beckman LS 6500 multifunctional liquid scintillation counter is adopted for measuring radiation intensity, calculating inhibition rate is calculated, each concentration has three duplicated tubes, and each tube is independently tested for 3-4 times.
(§2) IC50 value is calculated by software Prism 4.0.
(§3) Ki=IC50/(1+[L]/Kd), ([L] is the concentration of added marked ligand, and Kd is equilibrium dissociation constant of radioligand).

μ-opioid receptor = μ-opioid receptor (Homo sapiens, UniProt P35372); assay: Radioligand receptor binding assay, competition with [3H]diprenorphine, μ-receptor; settings: for inhibition at 1 µM: read-out: inhibition rate of medicine at 1 × 10^−6 M (μ); for Ki: Ki=IC50/(1+[L]/Kd); for IC50: competition binding, μ-opioid receptor; for receptor selectivity μKi/κKi: ratio of μ Ki to κ Ki
Procedure: as §1, §2, §3

Kuming mice [1] = assay: Mice hot plate method analgesic test; type: in vivo; settings: for Analgesic experiment result, Mice hot plate method: subcutaneous injection, hot plate 55° C., value with range in brackets
Procedure: (§4) Analgesic efficacy of the subject compound is determined by using model derived from mice hot plate method and mice writhing method (Methodology of Pharmacological Experiment, edition II, Xu Shuyun, People Medical Publishing Company, 1991).
Experiment Animal: Kuming Mice (Female, 18-22 g)
(§5) • (1) Selection of normal mice: the test room temperature is controlled at about 22° C., temperature of the hot plate of an pain threshold dector is regulated to 55° C., the duration from the moment the mice is put on the hot plate to the moment the mice start to lick the hind paw is recorded as pain threshold value, the test is repeated twice at interval of 20 min, and the mice with average pain threshold value no more than 30 sec is qualified mice. • (2) Experimental mice: the qualified mice are randomly divided into groups each having 10 mice, and subjected to subcutaneous injection. • Each group is tested for mice pain response time once every 5, 15, 30, 50, and 60 minute after administration, and the medicine is believed to be effective which response time beyond 1 min. • Mice Writhing Assay • I-6 is administered via subcutaneous injection, then 0.6% acetic acid solution (10 ml/kg) is administered after 30 min, and the number of the mice writhing within 15 min is recorded. 3.

Kuming mice [2] = assay: Mice writhing assay (acetic acid) analgesic test; type: in vivo; settings: subcutaneous injection, 0.6% acetic acid after 30 min, writhing within 15 min
Procedure: as §4, §5

Kuming mice [3] = assay: Analgesic tolerance test (hot plate, 9 days administration); type: in vivo; settings: morphine 7 mg/kg subcutaneous injection
Procedure: Kuming mice (18-20 g, male) are selected for test, and divided into physiological saline group, morphine group, and I-6 group.
physiological saline group: subcutaneous administration, 0.2 mL for each mice.
Morphine group: Day 1-3, subcutaneous injection, 7 mg/kg • Day 4-7, subcutaneous injection, 10 mg/kg • Day 8-9, subcutaneous injection, 15 mg/kg I-6 group: Day 1-9, subcutaneous injection, 25 μg/kg
Hot plate method in mice is adopted as model, administration lasts for 9 days, analgesic effects before and after administration are determined every day, and if analgesic effect is attenuated after continuous administration of 3 days, the drug concentration will be increased, and if analgesic effect don't change, the drug concentration will not be changed.

[4] = 1 × 10^−6 M, printed in the IC50 (M) μ column

SMILES: COc1ccc2c(c1)C(C(=O)N1CCc3ccc(OC)cc3C1CN1CCCC1)CC2=O (centres unmarked) [I-19, 7-methoxy-1-(pyrrolidine-1-methyl)-2-(6-methoxy-2,3-dihydro-inden-3-keto-1-carbonyl)-1,2,3,4-tetrahydroisoquinoline]
- dpm (κ-opioid receptor): 799.91 dpm
- inhibition rate % (κ-opioid receptor): 82.9%

SMILES: COc1cc2c(cc1OC)C(CN1CCCC1)N(C(=O)C1CC(=O)c3ccccc31)CC2 (centres unmarked) [I-26, 6,7-dimethoxy-1-(pyrrolidine-1-methyl)-2-(2,3-dihydro-inden-3-keto-1-carbonyl)-1,2,3,4-tetrahydroisoquinoline]
- dpm (κ-opioid receptor): 1883.77 dpm
- inhibition rate % (κ-opioid receptor): 51.9%

SMILES: COc1ccc2c(c1)C(C(=O)N1CCc3cc(OC)c(OC)cc3C1CN1CCCC1)CC2=O (centres unmarked) [I-31, 6,7-dimethoxy-1-(pyrrolidine-1-methyl)-2-(6-methoxy-2,3-dihydro-inden-3-keto-1-carbonyl)-1,2,3,4-tetrahydroisoquinoline]
- dpm (κ-opioid receptor): 3271.85 dpm
- inhibition rate % (κ-opioid receptor): 11.2%

SMILES: COc1cc2c(cc1OC)C(CN1CCCC1)N(C(=O)C1CC(=O)c3ccc(Cl)cc31)CC2 (centres unmarked) [I-30, 6,7-dimethoxy-1-(pyrrolidine-1-methyl)-2-(6-chloro-2,3-dihydro-inden-3-keto-1-carbonyl)-1,2,3,4-tetrahydroisoquinoline]
- dpm (κ-opioid receptor): 2269.71 dpm
- inhibition rate % (κ-opioid receptor): 40.6%

SMILES: COc1cc2c(cc1OC)C(CN1CCCC1)N(C(=O)C1CC(=O)c3cc(OC)c(OC)cc31)CC2 (centres unmarked) [I-27, 6,7-dimethoxy-1-(pyrrolidine-1-methyl)-2-(5,6-dimethoxy-2,3-dihydro-inden-3-keto-1-carbonyl)-1,2,3,4-tetrahydroisoquinoline]
- dpm (κ-opioid receptor): 5257.44 dpm
- inhibition rate % (κ-opioid receptor): 0%

SMILES: COc1ccc2c(c1)C(CN1CCCC1)N(C(=O)C1CC(=O)c3cc(OC)c(OC)cc31)CC2 (centres unmarked) [I-15, 7-methoxy-1-(pyrrolidine-1-methyl)-2-(5,6-dimethoxy-2,3-dihydro-inden-3-keto-1-carbonyl)-1,2,3,4-tetrahydroisoquinoline]
- dpm (κ-opioid receptor): 820.16 dpm
- inhibition rate % (κ-opioid receptor): 82.3%
- inhibition rate of medicine at 1 × 10^−6 M (μ) (μ-opioid receptor; [4]): 11.7% (^−6)^a

SMILES: COc1ccc2c(c1)C(CN1CCCC1)N(C(=O)C1CC(=O)c3ccc(Cl)cc31)CC2 (centres unmarked) [I-18, 7-methoxy-1-(pyrrolidine-1-methyl)-2-(6-chloro-2,3-dihydro-inden-3-keto-1-carbonyl)-1,2,3,4-tetrahydroisoquinoline]
- Ki (κ-opioid receptor): 17.1 nM
- dpm (κ-opioid receptor): 281.00 dpm
- IC50 (κ-opioid receptor): 59.9 nM
- inhibition at 10 µM (κ-opioid receptor): 100%
- melting point: 151 to 153 °C
- inhibition at 1 µM (μ-opioid receptor; [4]): 14%

SMILES: COc1cc2c(cc1OC)C(C(=O)N1CCc3ccccc3C1CN1CCCC1)CC2=O (centres unmarked) [I-5, 1-(pyrrolidine-1-methyl)-2-(5,6-dimethoxy-2,3-dihydro-inden-3-keto-1-carbonyl)-1,2,3,4-tetrahydroisoquinoline]
- Ki (κ-opioid receptor): 1.34 nM
- dpm (κ-opioid receptor): 260.58 dpm
- IC50 (κ-opioid receptor): 4.69 nM
- inhibition at 10 µM (κ-opioid receptor): 99.5%
- Ki (μ-opioid receptor): 106 nM
- IC50 (μ-opioid receptor): 318 nM
- receptor selectivity μKi/κKi (μ-opioid receptor): 79

SMILES: O=C1CC(C(=O)N2CCc3ccccc3C2CN2CCCC2)c2ccccc21 (centres unmarked) [I-1, 1-(pyrrolidine-1-methyl)-2-(2,3-dihydro-inden-3-keto-1-carbonyl)-1,2,3,4-tetrahydroisoquinoline]
- analgesic efficacy compared with morphine (Kuming mice [1]; mice hot plate method and mice writhing method): powerful analgesic efficacy
- Analgesic experiment result, Mice hot plate method (Kuming mice [1]): 44.147(25.134-77.545) ug/kg
- Ki (κ-opioid receptor): 0.438 nM
- dpm (κ-opioid receptor): 212.91 dpm
- IC50 (κ-opioid receptor): 1.53 nM
- inhibition at 10 µM (κ-opioid receptor): 100%
- inhibition at 1 µM (μ-opioid receptor; [4]): 18.7%
- Analgesic experiment result, Mice writhing assay (Kuming mice [2]): 26.303(16.807-41.165) ug/kg

SMILES: COc1ccc2c(c1)C(C(=O)N1CCc3ccccc3C1CN1CCCC1)CC2=O (centres unmarked) [I-13, 1-(pyrrolidine-1-methyl)-2-(6-methoxy-2,3-dihydro-inden-3-keto-1-carbonyl)-1,2,3,4-tetrahydroisoquinoline]
- Ki (κ-opioid receptor): 0.909 nM
- dpm (κ-opioid receptor): 211.54 dpm
- IC50 (κ-opioid receptor): 3.18 nM
- inhibition at 10 µM (κ-opioid receptor): 100%
- Ki (μ-opioid receptor): 133 nM
- IC50 (μ-opioid receptor): 399 nM
- receptor selectivity μKi/κKi (μ-opioid receptor): 146

SMILES: COc1ccc2c(c1)C(CN1CCCC1)N(C(=O)C1CC(=O)c3ccccc31)CC2 (centres unmarked) [I-14, 7-methoxy-1-(pyrrolidine-1-methyl)-2-(2,3-dihydro-inden-3-keto-1-carbonyl)-1,2,3,4-tetrahydroisoquinoline]
- Ki (κ-opioid receptor): 270 nM
- dpm (κ-opioid receptor): 972.69 dpm
- IC50 (κ-opioid receptor): 912 nM
- inhibition at 10 µM (κ-opioid receptor): 77.3%
- inhibition at 1 µM (μ-opioid receptor; [4]): 14.6%

SMILES: CN1CC[C@]23c4c5ccc(O)c4O[C@H]2[C@@H](O)C=C[C@H]3[C@H]1C5 [Morphine, morphine]
- Analgesic experiment result, Mice hot plate method (Kuming mice [1]): 6.949(5.682-8.500) mg/kg
- analgesic effect on continuous administration (Kuming mice [3]; Day 3): no significant analgesic effect; also recorded: tolerance and efficacy of zero
- analgesic effect on continuous administration (Kuming mice [3]; from Day 2): attenuated analgesic effect from Day 2
- Analgesic experiment result, Mice writhing assay (Kuming mice [2]): 0.840(0.558-1.265) mg/kg
